Target: T1, human TLR7 (Homo sapiens, UniProt Q9NYK1)
T1 construct: host or cells: HEK293-Blue-hTLR-7 (HEK293)
T1 sequence (Q9NYK1 27-1049): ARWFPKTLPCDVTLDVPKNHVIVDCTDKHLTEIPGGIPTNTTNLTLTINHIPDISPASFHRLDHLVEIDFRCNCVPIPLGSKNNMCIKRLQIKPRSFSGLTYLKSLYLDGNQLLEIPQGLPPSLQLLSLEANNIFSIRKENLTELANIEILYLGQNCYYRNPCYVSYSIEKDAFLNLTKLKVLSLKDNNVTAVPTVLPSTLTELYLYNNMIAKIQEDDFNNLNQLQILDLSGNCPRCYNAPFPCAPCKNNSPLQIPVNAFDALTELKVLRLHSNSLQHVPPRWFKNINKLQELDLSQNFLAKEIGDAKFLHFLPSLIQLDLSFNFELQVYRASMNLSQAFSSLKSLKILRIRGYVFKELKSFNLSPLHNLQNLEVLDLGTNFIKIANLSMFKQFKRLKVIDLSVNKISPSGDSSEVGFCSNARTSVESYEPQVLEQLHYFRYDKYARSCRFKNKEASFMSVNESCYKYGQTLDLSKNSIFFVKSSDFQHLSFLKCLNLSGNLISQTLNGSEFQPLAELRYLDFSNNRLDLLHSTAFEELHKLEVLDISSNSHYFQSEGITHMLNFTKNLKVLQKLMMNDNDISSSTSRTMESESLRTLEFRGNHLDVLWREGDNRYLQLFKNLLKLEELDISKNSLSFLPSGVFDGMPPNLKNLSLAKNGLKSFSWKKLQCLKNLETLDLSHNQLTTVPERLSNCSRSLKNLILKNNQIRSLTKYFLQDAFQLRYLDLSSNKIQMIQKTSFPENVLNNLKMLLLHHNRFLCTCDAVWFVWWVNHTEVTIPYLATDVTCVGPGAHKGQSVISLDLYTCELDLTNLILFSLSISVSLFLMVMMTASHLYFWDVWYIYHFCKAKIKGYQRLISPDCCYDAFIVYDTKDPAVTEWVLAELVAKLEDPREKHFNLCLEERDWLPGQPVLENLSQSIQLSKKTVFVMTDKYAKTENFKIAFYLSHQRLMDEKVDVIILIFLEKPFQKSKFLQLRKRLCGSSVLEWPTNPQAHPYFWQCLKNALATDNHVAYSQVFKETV
Experiment: HEK293-Blue-hTLR-7 cells assay
Format: cell-based
Conditions: HEK293-Blue-hTLR7 cells, R848 stimulation, 20 hrs, SEAP reporter; read-out: HEK/hTLR7 IC50
Method: The following tests were carried out in order to determine the activity of the compounds of formula (I) and (Ia) in HEK293-Blue-hTLR-7/8/9 cells assay.
HEK293-Blue-hTLR-7 cells assay:
A stable HEK293-Blue-hTLR-7 cell line was purchased from InvivoGen (Cat. #: hkb-htlr7, San Diego, Calif., USA). These cells were originally designed for studying the stimulation of human TLR7 by monitoring the activation of NE-κB. A SEAP (secreted embryonic alkaline phosphatase) reporter gene was placed under the control of the IFN-β minimal promoter fused to five NE-κB and AP-1-binding sites. The SEAP was induced by activating NE-κB and AP-1 via stimulating HEK-Blue hTLR7 cells with TLR7 ligands. Therefore the reporter expression was declined by TLR7 antagonist under the stimulation of a ligand, such as R848 (Resiquimod), for incubation of 20 hrs. The cell culture supernatant SEAP reporter activity was determined using QUANTI-Blue™ kit (Cat. #: rep-qbl, Invivogen, San Diego, Ca, USA) at a wavelength of 640 nm, a detection medium that turns purple or blue in the presence of alkaline phosphatase.
HEK293-Blue-hTLR7 cells were incubated at a density of 250,000-450,000 cells/mL in a volume of 170 μL in a 96-well plate in Dulbecco's Modified Eagle's medium (DMEM) containing 4.5 g/L glucose, 50 U/mL penicillin, […], […], 2 mM L-glutamine, 10% (v/v) heat-inactivated fetal bovine serum with addition of 20 μL test compound in a serial dilution in the presence of final DMSO at 1% and 10 μL of 20 uM R848 in above DMEM, perform incubation under 37° C. in a CO2 incubator for 20 hrs. Then 20 μL of the supernatant from each well was incubated with 180 μL Quanti-blue substrate solution at 37° C. for 2 hrs and the absorbance was read at 620˜655 nm using a spectrophotometer. The signalling pathway that TLR7 activation leads to downstream NE-κB activation has been widely accepted, and therefore similar reporter assay was modified for evaluating TLR7 antagonist.

Structure (SMILES)	IC50 [nM]
Cc1cc(N2CCC23CN(C[C@H]2CN(c4ccc(C#N)c5ncccc45)C[C@@H](C)O2)C3)ccn1 [Example 15]	7
Cc1cc(N2CCC[C@H](N(C)C[C@H]3CN(c4ccc(C#N)c5ncccc45)C[C@@H](C)O3)C2)cc(CO)n1 [Example 38]	35
Cc1cc(N2C[C@H]3CN(C[C@H]4CN(c5ccc(C#N)c6ncccc56)C[C@@H](C)O4)C[C@H]3C2)cc(CO)n1 [Example 10]	57
Cc1cc(N2CCOC3CN(CC4CN(c5ccc(C#N)c6ncccc56)CC(C)O4)CC32)cc(C)n1 (single isomer, unassigned) [Example 17B]	11

More lines, now with the values ahead:

IC50 [nM]	Structure (SMILES)
8	Cc1cc(N(C)C2CN(C[C@H]3CN(c4ccc(C#N)c5ncccc45)C[C@@H](C)O3)C2)cc(C)n1 [Example 11]
20	Cc1cc(N2CC3(CN(C[C@H]4CN(c5ccc(C#N)c6ncccc56)C[C@@H](C)O4)C3)C2)cc(C(C)O)n1 (stereo partly drawn) [Example 44, 5-[(2S,6R)-2-[[2-[2-(1-hydroxyethyl)-6-methyl-4-pyridyl]-2,6-diazaspiro[3.3]heptan-6-yl]methyl]-6-methyl-morpholin-4-yl]quinoline-8-carbonitrile]
34	Cc1cc(N2CC(N(C)C[C@H]3CN(c4ccc(C#N)c5ncccc45)C[C@@H](C)O3)C2)cc(CO)n1 [Example 37]
28	Cc1cc(N2CC3(CN(C[C@H]4CN(c5ccc(C#N)c6ncccc56)C[C@@H](C)O4)C3)C2)cc(CO)n1 [Example 1, 5-[(2S,6R)-2-[[2-[2-(hydroxymethyl)-6-methyl-4-pyridyl]-2,6-diazaspiro[3.3]heptan-6-yl]methyl]-6-methyl-morpholin-4-yl]quinoline-8-carbonitrile]
12	Cc1cc(N2CC[C@@H](F)[C@H](NC[C@H]3CN(c4ccc(C#N)c5ncccc45)C[C@@H](C)O3)C2)cc(CO)n1 [Example 34]
